Test results taken from publication PMC5855550, “Pharmacokinetic Study of Bioactive Flavonoids in the Traditional Japanese Medicine Keigairengyoto Exerting Antibacterial Effects against Staphylococcus aureus” (International Journal of Molecular Sciences, 2018).

Key:
β-glucuronidase = molecular target: T1, β-glucuronidase (Mus musculus, UniProt P12265); assay: Conversion assay of baicalin to baicalein by macrophages, macrophage lysate and skin homogenate; assay type: in vitro ADME; conditions: baicalin 10 μmol/L; 24 h incubation; living macrophages (RAW264.7), also lysates of macrophages and skin
T1 construct: endogenous in cells; host or cells: RAW264.7 cells (live or lysate); alternatively back-skin homogenate supernatant of naive mice (tissue)
T1 sequence (P12265 23-648): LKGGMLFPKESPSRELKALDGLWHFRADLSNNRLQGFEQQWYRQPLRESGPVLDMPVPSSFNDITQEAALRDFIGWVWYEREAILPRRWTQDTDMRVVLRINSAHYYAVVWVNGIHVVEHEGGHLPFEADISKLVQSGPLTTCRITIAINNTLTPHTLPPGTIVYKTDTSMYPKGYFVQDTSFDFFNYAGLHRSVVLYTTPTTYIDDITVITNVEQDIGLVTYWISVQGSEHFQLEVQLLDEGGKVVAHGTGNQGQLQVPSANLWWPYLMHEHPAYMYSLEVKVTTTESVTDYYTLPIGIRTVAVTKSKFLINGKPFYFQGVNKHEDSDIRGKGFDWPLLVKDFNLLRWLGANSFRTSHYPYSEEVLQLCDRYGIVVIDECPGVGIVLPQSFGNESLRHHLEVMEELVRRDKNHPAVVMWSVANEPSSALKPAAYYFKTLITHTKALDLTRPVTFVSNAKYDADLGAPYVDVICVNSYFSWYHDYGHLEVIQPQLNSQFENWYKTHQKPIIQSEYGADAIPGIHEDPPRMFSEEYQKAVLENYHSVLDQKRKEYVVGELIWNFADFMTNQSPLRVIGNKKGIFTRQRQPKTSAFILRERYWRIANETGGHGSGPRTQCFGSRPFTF
Experimental: Naïve mice were sacrificed by exsanguination to obtain skin samples from the back. After shaving with an electric razor, the skin was excised and homogenized in cold PBS at 20 mg/mL. After centrifugation at 10,000× g for 20 min at 4 °C, supernatants were harvested and stored at −80 °C until use.
To examine β-glucuronidase activity in skin tissue, baicalin (final 10 μmol/L) was added as a substrate to skin homogenate in 24-well plates. Alternatively, to examine β-glucuronidase activity in macrophages, baicalin (final 10 μmol/L) was added to live RAW264.7 cells seeded at 1 × 10^5 cells/0.5 mL/well or to cell lysates in 24-well plates. After 24 h incubation in a 5% CO2 incubator, supernatants were harvested and stored at −80 °C until measurement of baicalin and baicalein by LC-MS/MS as described above.

RAW264.7 cells = assay: Macrophage culture assay: phagocytosis of FITC-conjugated S. aureus; assay type: cell-based, mouse; conditions: for Phagocytosis relative change versus control / Phagocytosis MFI: IFN-γ 0.5 ng/mL; for Phagocytosis MFI: mean ± SEM of triplicates
Experimental: Cells of the mouse macrophage cell line RAW264.7 (ATCC, Manassas, VA, USA) were grown in Dulbecco’s modified Eagles medium supplemented with 10% fetal bovine serum (FBS), 4.5 g/L glucose, 2 mmol/L L-glutamine, 100 U/mL penicillin, 100 µg/mL streptomycin, and 10 mmol/L HEPES. […] After 3 days’ incubation at 37 °C, culture fluids were removed and replaced by warm medium containing 30 μg/mL FITC-conjugated S. aureus. After 30 min incubation in a 5% CO2 incubator, cells were harvested using cold PBS containing 2 mmol/L EDTA, washed, and fixed for 15 min at 4 °C with phosphate buffer containing 4% paraformaldehyde (pH 7.4). FITC-positive cells were determined using a FACSaria II flow cytometer and DIVA 8.0.1 software (Becton Dickinson, San Jose, CA, USA). Phagocytic activity is expressed as the mean fluorescence intensity (MFI) from individual cells.

[1] = Plasma pharmacokinetics of KRT-derived compounds in rats given oral KRT (LC-MS/MS, with or without β-glucuronidase treatment of plasma)
Experimental: To specifically deconjugate glucuronides, 80 μL of plasma sample was incubated with 50 μL of β-glucuronidase solution containing 200 units/mL β-glucuronidase from Escherichia coli (Sigma-Aldrich) for 2 h at 37 °C. The deconjugation reaction was stopped by adding ethyl acetate or by refrigerating the mixture considering the following procedures. This pretreated solution was injected into the two liquid chromatography–mass spectrometry with tandem mass spectrometry (LC-MS/MS) systems after pooling with an internal standard solution of niflumic acid (Sigma-Aldrich) or atropine (Wako Pure Chemical Industries, Osaka, Japan).
For quantification of apigenin, wogonin, wogonoside, hesperetin, naringenin, liquiritigenin, genistein, and luteolin in β-glucuronidase-naive (untreated) plasma, 200 µL plasma samples were pretreated by liquid-liquid extraction using ethyl acetate. The total supernatant was collected, dried, and concentrated using a centrifugal evaporator. The dried residue was then dissolved in 60 μL of the specific HPLC mobile phase used for each analytical method, and a 10 or 20 μL volume injected into the LC-MS/MS system.
For quantification of baicalin, baicalein, and berberine in untreated plasma, 80 µL of plasma was pretreated by solid-phase extraction using Oasis HLB 96-well µElution plate (Waters, Milford, MA, USA). The methanol eluates were collected, dried, and dissolved in 60 μL of the specific HPLC mobile phase. A 10 or 20 μL volume was then injected into the LC-MS/MS system.
For quantification of glycyrrhizic acid and glycyrrhetinic acid in untreated plasma, 100 µL plasma samples were pretreated by deproteinization using methanol. The supernatant was collected, dried, and concentrated using a centrifugal evaporator. The dried residue was then dissolved in 60 μL of the specific HPLC mobile phase used for the analytical method, and a 10 μL volume injected into the LC-MS/MS system.
For quantification of wogonin, wogonoside, hesperetin, naringenin, liquiritigenin, and genistein in treated plasma, the reaction solutions after deconjugation reactions were pretreated by liquid-liquid extraction. The supernatant was dissolved in 120 μL of the specific HPLC mobile phase, and a 10 or 15 μL volume injected into the LC-MS/MS system.
For quantification of apigenin, luteolin, baicalin, baicalein, and berberine in treated plasma, the reaction solutions after deconjugation were pretreated by solid-phase extraction by the method described above, and 10 or 15 μL of the solution dissolved in 50 μL of the specific HPLC mobile phase was injected into the LC-MS/MS system.
Pharmacokinetic parameters of flavonoids and glucuronide metabolites in KRT-administrated plasma with or without β-glucuronidase treatment were analyzed by noncompartmental modeling using Phoenix WinNonlin (version 6.3, Certara L.P., St. Louis, MO, USA) to determine various pharmacokinetic constants, including Cmax, tmax, t1/2, and AUC0–last. The t1/2 was […] loge2/ke, where ke is the terminal elimination rate constant determined from at least three data points on the descending linear limb.

macrophage = tested on: macrophage; parameters: method as in doi:10.24294/ti.v1.i1.31; conditions: previous data; cited from earlier work
[2] = Exp. 2, 1 μmol/L, control 226 ± 12
[3] = Exp. 2, 3 μmol/L, control 226 ± 12
[4] = Exp. 2, 10 μmol/L, control 226 ± 12
[5] = Sprague-Dawley, rat, in vivo, po, 2 g/kg

| SMILES | deconjugation of baicalin to aglycone baicalein (β-glucuronidase) | phagocytosis by macrophages (result in words) (RAW264.7 cells; 10 μmol/L) | Phagocytosis relative change versus control (RAW264.7 cells; Exp. 2, 1 μmol/L) | Phagocytosis MFI (RAW264.7 cells; [2]) | Phagocytosis relative change versus control (RAW264.7 cells; Exp. 2, 3 μmol/L) | Phagocytosis MFI (RAW264.7 cells; [3]) | Phagocytosis relative change versus control (RAW264.7 cells; Exp. 2, 10 μmol/L) | Phagocytosis MFI (RAW264.7 cells; [4]) | AUC(0-t) [1, 5] | Cmax [1, 5] | Tmax [1, 5] | half-life [1, 5] | macrophage phagocytosis-enhancing activity (macrophage) | Phagocytosis relative change versus control (RAW264.7 cells; Exp. 1, 10 μmol/L) | Phagocytosis MFI (RAW264.7 cells; Exp. 1, 10 μmol/L, 3 days, control 155 ± 4) | Cmax ([1]; Sprague-Dawley, rat, plasma, oral, 2 g/kg) | Cmax ([1]; rat plasma, no β-glucuronidase treatment, KRT 2 g/kg oral, BQL for baicalein = 125 ng/mL) | Cmax ([1]; rat plasma, no β-glucuronidase treatment, KRT 2 g/kg oral, BQL for baicalein = 125 ng/mL, listed as baicalein) |
| --- | --- | --- | --- | --- | --- | --- | --- | --- | --- | --- | --- | --- | --- | --- | --- | --- | --- | --- |
| O=C(O)[C@H]1O[C@@H](Oc2cc3oc(-c4ccccc4)cc(=O)c3c(O)c2O)[C@H](O)[C@@H](O)[C@@H]1O [baicalin, baicalein 7-O-glucuronide] | almost completely deconjugated to baicalein | promoted | 1.1 | 238 ± 9 | 1.2 | 269 ± 10 | 2.4 | 531 ± 19 | 10100 ng·h/mL | 1020 ng/mL | 4 h | 212 min | – | – | – | – | – | – |
| CC1(C)[C@@H](O)CC[C@]2(C)[C@H]3C(=O)C=C4[C@@H]5C[C@@](C)(C(=O)O)CC[C@]5(C)CC[C@@]4(C)[C@]3(C)CC[C@@H]12 [glycyrrhetinic acid] | – | – | – | – | – | – | – | – | – | 121 ng/mL | 6 h | – | no macrophage phagocytosis-enhancing activity | – | – | – | – | – |
| O=c1cc(-c2ccccc2)oc2cc(O)c(O)c(O)c12 [Baicalein, baicalein] | – | enhanced | 1.0 | 223 ± 10 | 2.0 | 445 ± 7 | 3.8 | 866 ± 25 | – | – | – | – | – | 3.4 | 530 ± 6 | 1320 ng/mL | BQL ^# | BQL |
